Assays:
[1] = Stability of (1R,1′R)-atracurium besylate solution in different buffers at room temperature (HPLC, USP procedure); format: physicochemical; conditions: for % of cisatracurium besylate after 24 hours / % of cisatracurium besylate at T = 0: 90% buffer/10% methanol
Protocol: (§1) The stability of the (1R,1′R)-atracurium besylate solution at room temperature for time periods of up to 24 hours was checked using different types of buffers (varying by the nature of the cation and the anion). The diluent was a mixture of 90% buffer and 10% methanol. The Cation concentration in each buffer was 20 mM. The HPLC conditions were according to the USP procedure. The results are depicted in Tables 11 and 12. The degradation (D), according to the data presented in Table 11, was calculated as follows: [formula] wherein, X0=% of cisatracurium at T0, and X24=% of cisatracurium at after 24 hours.

[2] = Stability of (1R,1′R)-atracurium besylate sample solution at pH 1.0 and 2.0 (nitrate buffer) at room temperature and 4° C.; format: physicochemical
Protocol: A sample solution of (1R,1′R)-atracurium besylate (10 mg/ml) was prepared using two buffer solutions at pH values of 1.0 and 2.0 and analyzed on the C18 stationary phase by gradient elution [20 mM KNO3 buffer (at pH corresponding to sample preparation)—methanol]. […] [formula] wherein, X0=% of cisatracurium at T0, and X6/26=% of cisatracurium at after 6 or 26 hours.

[3] = Stability of (1R,1′R)-atracurium besylate at different pH values in Na+CH3COO−/CH3COOH buffer; format: physicochemical; conditions: T0 to 21.0 hours
[4] = more potent than atracurium besylate itself; cited from earlier work
[5] = Stability of (1R,1′R)-atracurium besylate at different pH values in Na+CH3COO−/CH3COOH buffer; format: physicochemical; conditions: for % degradation: T0 to 21.0 hours
Protocol: as §1, with “12. […]” for “12.”, “(D)” for “(D),”, “12” for “11,”, “X21=%” for “X24=%”

[6] = CaBr2/HBr buffer pH 3.5, 20 mM cation
[7] = K+H2PO4 buffer pH 3.0, 20 mM cation
[8] = NH4+CH3COO−/CH3COOH buffer pH 3.5, 20 mM cation
[9] = NH4+CH3COO−/HCOOH buffer pH 3.5, 20 mM cation
[10] = Na+CH3COO−/CH3COOH buffer pH 3.5, 20 mM cation
[11] = Na+NO3−/HNO3 buffer pH 3.0, 20 mM cation
[12] = diethylamine/CH3COOH buffer pH 3.5, 20 mM cation
[13] = triethylamine/CH3COOH buffer pH 3.5, 20 mM cation
[14] = pH = 1, room temperature, 6 hours
[15] = pH = 1, room temperature, 26 hours
[16] = pH = 2, room temperature, 6 hours

COc1ccc(C[C@@H]2c3cc(OC)c(OC)cc3CC[N@+]2(C)CCC(=O)OCCCCCOC(=O)CC[N@@+]2(C)CCc3cc(OC)c(OC)cc3[C@H]2Cc2ccc(OC)c(OC)c2)cc1OC [cisatracurium besylate, 1R-cis-1′R-cis-2,2′2,2′-[1,5-pentanediylbis[oxy(3-oxo-3,1-propanediyl)]]bis[1-[(3,4-dimethoxyphenyl)methyl]-1,2,3,4-tetrahydro-6,7-dimethoxy-2-methyl-isoquinolinium dibenzenesulfonate]
% of cisatracurium besylate after 24 hours [1, 6]: 54.4% | % of cisatracurium besylate at T = 0 [1, 6]: 54.4% | % degradation ([1]; CaBr2/HBr buffer pH 3.5, 24 hours): 0% | % of cisatracurium besylate after 24 hours [1, 7]: 53.7% | % of cisatracurium besylate at T = 0 [1, 7]: 54.7% | % degradation ([1]; K+H2PO4 buffer pH 3.0, 24 hours): 1.8% | % of cisatracurium besylate after 24 hours [1, 8]: 52.9% | % of cisatracurium besylate at T = 0 [1, 8]: 54.7% | % degradation ([1]; NH4+CH3COO−/CH3COOH buffer pH 3.5, 24 hours): 3.3% | % of cisatracurium besylate after 24 hours [1, 9]: 54.3% | % of cisatracurium besylate at T = 0 [1, 9]: 54.6% | % degradation ([1]; NH4+CH3COO−/HCOOH buffer pH 3.5, 24 hours): 0.5% | % of cisatracurium besylate after 24 hours [1, 10]: 52.5% | % of cisatracurium besylate at T = 0 [1, 10]: 54.5% | % degradation ([1]; Na+CH3COO−/CH3COOH buffer pH 3.5, 24 hours): 3.7% | % of cisatracurium besylate after 24 hours [1, 11]: 54.5% | % of cisatracurium besylate at T = 0 [1, 11]: 54.5% | % degradation ([1]; Na+NO3−/HNO3 buffer pH 3.0, 24 hours): 0% | % of cisatracurium besylate after 24 hours [1, 12]: 53.2% | % of cisatracurium besylate at T = 0 [1, 12]: 54.7% | % degradation ([1]; diethylamine/CH3COOH buffer pH 3.5, 24 hours): 2.7% | % of cisatracurium besylate after 24 hours [1, 13]: 52.1% | % of cisatracurium besylate at T = 0 [1, 13]: 54.4% | % degradation ([1]; triethylamine/CH3COOH buffer pH 3.5, 24 hours): 4.2% | % area of the cis-cis isomer ([2]; pH = 1, 4° C., 0 hours): 54.9% | % area of the cis-cis isomer ([2]; pH = 1, 4° C., 6 hours): 53.9% | D, % (degradation) ([2]; pH = 1, 4° C., 6 hours): 1.8% | % area of the cis-cis isomer ([2]; pH = 1, 4° C., 26 hours): 52.8% | D, % (degradation) ([2]; pH = 1, 4° C., 26 hours): 3.8% | % area of the cis-cis isomer ([2]; pH = 1, room temperature, 0 hours): 54.9% | % area of the cis-cis isomer [2, 14]: 50.2% | D, % (degradation) [2, 14]: 8.6% | % area of the cis-cis isomer [2, 15]: 38.8% | D, % (degradation) [2, 15]: 29.3% | % area of the cis-cis isomer ([2]; pH = 2, 4° C., 0 hours): 54.8% | % area of the cis-cis isomer ([2]; pH = 2, 4° C., 6 hours): 54.8% | D, % (degradation) ([2]; pH = 2, 4° C., 6 hours): 0% | % area of the cis-cis isomer ([2]; pH = 2, 4° C., 26 hours): 54.7% | D, % (degradation) ([2]; pH = 2, 4° C., 26 hours, nitrate buffer): 0.2% | % area of the cis-cis isomer ([2]; pH = 2, room temperature, 0 hours): 54.8% | % area of the cis-cis isomer [2, 16]: 54.5% | D, % (degradation) [2, 16]: 0.5% | % area of the cis-cis isomer ([2]; pH = 2, room temperature, 26 hours): 53.8% | D, % (degradation) ([2]; pH = 2, room temperature, 26 hours, nitrate buffer): less than 2% | D, % (degradation) ([2]; pH = 2, room temperature, 26 hours, nitrate buffer, listed as cis-cis isomer): 1.8% | stability under the separation conditions ([2]; separation conditions of the invention (mildly acidic or buffered aqueous mobile phase)): substantially stable | % degradation ([3]; pH 3.0, Na+CH3COO−/CH3COOH buffer): 6.4% | % degradation ([3]; pH 4.0, Na+CH3COO−/CH3COOH buffer): 10.3% | % degradation ([3]; pH 5.0, Na+CH3COO−/CH3COOH buffer): 28.4% | % degradation ([3]; pH 5.5, Na+CH3COO−/CH3COOH buffer): 48.1% | potency relative to atracurium besylate [4]: 3-4 times | % of cisatracurium besylate ([5]; pH 3.0, Na+CH3COO−/CH3COOH buffer, 0.0 hours): 53.4% | % of cisatracurium besylate ([5]; pH 3.0, Na+CH3COO−/CH3COOH buffer, 10.0 hours): 51.3% | % of cisatracurium besylate ([5]; pH 3.0, Na+CH3COO−/CH3COOH buffer, 21.0 hours): 50.0% | change of % area of the 1R-cis,1′R-cis isomer (FIG. 7) ([5]; pH 3, after 20 hours): only slightly reduced | % of cisatracurium besylate ([5]; pH 3.5, Na+CH3COO−/CH3COOH buffer, 0.0 hours): 53.6% | % of cisatracurium besylate ([5]; pH 3.5, Na+CH3COO−/CH3COOH buffer, 10.0 hours): 51.0% | % of cisatracurium besylate ([5]; pH 3.5, Na+CH3COO−/CH3COOH buffer, 21.0 hours): 49.2% | % degradation ([5]; pH 3.5, Na+CH3COO−/CH3COOH buffer): 8.2% | % of cisatracurium besylate ([5]; pH 4.0, Na+CH3COO−/CH3COOH buffer, 0.0 hours): 53.4% | % of cisatracurium besylate ([5]; pH 4.0, Na+CH3COO−/CH3COOH buffer, 10.0 hours): 50.5% | % of cisatracurium besylate ([5]; pH 4.0, Na+CH3COO−/CH3COOH buffer, 21.0 hours): 47.9% | % of cisatracurium besylate ([5]; pH 4.5, Na+CH3COO−/CH3COOH buffer, 0.0 hours): 53.9% | % of cisatracurium besylate ([5]; pH 4.5, Na+CH3COO−/CH3COOH buffer, 10.0 hours): 49.9% | % of cisatracurium besylate ([5]; pH 4.5, Na+CH3COO−/CH3COOH buffer, 21.0 hours): 46.2% | % degradation ([5]; pH 4.5, Na+CH3COO−/CH3COOH buffer): 14.3% | % of cisatracurium besylate ([5]; pH 5.0, Na+CH3COO−/CH3COOH buffer, 0.0 hours): 53.6% | % of cisatracurium besylate ([5]; pH 5.0, Na+CH3COO−/CH3COOH buffer, 10.0 hours): 46.1% | % of cisatracurium besylate ([5]; pH 5.0, Na+CH3COO−/CH3COOH buffer, 21.0 hours): 38.4% | % of cisatracurium besylate ([5]; pH 5.5, Na+CH3COO−/CH3COOH buffer, 0.0 hours): 53.6% | % of cisatracurium besylate ([5]; pH 5.5, Na+CH3COO−/CH3COOH buffer, 10.0 hours): 40.8% | % of cisatracurium besylate ([5]; pH 5.5, Na+CH3COO−/CH3COOH buffer, 21.0 hours): 27.8% | change of % area of the 1R-cis,1′R-cis isomer (FIG. 7) ([5]; pH 5.5, after 20 hours): significantly reduced
